Data taken from patent US10294202B2, “Pyrrolidinones as herbicides” (FMC Corporation, priority 2013, dated 2019).

Tests used:
corn = assay: Test A pre-/postemergence herbicide test; format: in vivo, Zea mays; settings: Postemergence; for Plant response rating, Corn: 125 g ai/ha, 0 to 100 scale, 0 is no effect, 100 is complete control; for Corn plant response rating (0 to 100 scale, 0 is no effect, 100 is complete control): 500 g ai/ha
Summary of the method: (§1)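 Scoring was visual, relative to untreated controls, on a 0–100 scale after about 10 greenhouse days. Preemergence treatment used a directed soil spray over seeded loam/sand; postemergence treatment targeted one- to two-leaf plants of 2–10 cm.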

giant foxtail = assay: Test A pre-/postemergence herbicide test; format: in vivo, Setaria faberii; settings: for Plant response rating, Foxtail, Giant: 0 to 100 scale
Summary of the method: as §1

pigweed = assay: Test A pre-/postemergence herbicide test; format: in vivo, Amaranthus retroflexus; settings: for Plant response rating, Pigweed: 0 to 100 scale
Summary of the method: as §1

rice = assay: Test B flooded paddy test; format: in vivo, Oryza sativa; settings: Flood, scale of 0 to 100 where 0 is no effect and 100 is complete control
Summary of the method: (§2)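 Plants were grown to the 2-leaf stage, then pots were flooded to 3 cm above the soil and compound was applied directly into the paddy water, with that depth held throughout. After 13 to 15 days in a greenhouse, injury was rated visually against untreated controls on a 0 to 100 scale (100 = complete control).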

barnyardgrass [1] = assay: Test B flooded paddy test; format: in vivo, Echinochloa crus-galli; settings: Flood, scale of 0 to 100 where 0 is no effect and 100 is complete control
Summary of the method: as §2

ducksalad = assay: Test B flooded paddy test; format: in vivo, Heteranthera limosa; settings: Flood, scale of 0 to 100 where 0 is no effect and 100 is complete control
Summary of the method: as §2

ryegrass, Italian = assay: Test A pre-/postemergence herbicide test; format: in vivo, Lolium multiflorum; settings: for Plant response rating, Ryegrass, Italian: 0 to 100 scale
Summary of the method: as §1

ragweed = assay: Test A pre-/postemergence herbicide test; format: in vivo, Ambrosia elatior; settings: for Plant response rating, Ragweed: 0 to 100 scale
Summary of the method: as §1

sedge, umbrella = assay: Test B flooded paddy test; format: in vivo, Cyperus difformis; settings: Flood, scale of 0 to 100 where 0 is no effect and 100 is complete control
Summary of the method: as §2

barnyardgrass [2] = assay: Test A pre-/postemergence herbicide test; format: in vivo, Echinochloa crus-galli; settings: for Plant response rating, Barnyardgrass: 0 to 100 scale
Summary of the method: as §1

kochia = assay: Test A pre-/postemergence herbicide test; format: in vivo, Kochia scoparia; settings: for Plant response rating, Kochia: 0 to 100 scale
Summary of the method: as §1

blackgrass = assay: Test A postemergence herbicide test; format: in vivo, Alopecurus myosuroides; settings: for Plant response rating, Blackgrass: 125 g ai/ha, 0 to 100 scale, 0 is no effect, 100 is complete control; for Blackgrass plant response rating (0 to 100 scale, 0 is no effect, 100 is complete control): 500 g ai/ha
Summary of the method: (§3)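 Potted in loam soil/sand blend; postemergence application at 1–2 leaf stage (2–10 cm). Greenhouse ~10 d. Visual injury vs untreated, 0–100 scale; 100 = complete control.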

galium = assay: Test A postemergence herbicide test; format: in vivo, Galium aparine; settings: for Plant response rating, Galium: 125 g ai/ha, 0 to 100 scale, 0 is no effect, 100 is complete control; for Galium plant response rating (0 to 100 scale, 0 is no effect, 100 is complete control): 500 g ai/ha
Summary of the method: as §3

wheat = assay: Test A pre-/postemergence herbicide test; format: in vivo, Triticum aestivum; settings: Postemergence; for Plant response rating, Wheat: 125 g ai/ha, 0 to 100 scale, 0 is no effect, 100 is complete control; for Wheat plant response rating (0 to 100 scale, 0 is no effect, 100 is complete control): 500 g ai/ha
Summary of the method: as §1

[3] = 125 g ai/ha, visual rating, 0 no effect, 100 complete control, approximately 10 days, preemergence
[4] = Postemergence, 125 g ai/ha, 0 is no effect, 100 is complete control
[5] = preemergence, 500 g ai/ha, 0 is no effect and 100 is complete control

| Compound | Plant response rating, Corn (corn) | Corn plant response rating (0 to 100 scale, 0 is no effect, 100 is complete control) (corn) | Plant response rating, Foxtail, Giant (giant foxtail; [3]) | Plant response rating, Foxtail, Giant (giant foxtail; [4]) | Foxtail, Giant plant response rating (0 to 100 scale, 0 is no effect, 100 is complete control) (giant foxtail; Postemergence, 500 g ai/ha) | Plant response rating, Foxtail, Giant (giant foxtail; [5]) | Plant response rating, Pigweed (pigweed; [3]) | Plant response rating, Pigweed (pigweed; [4]) | Pigweed plant response rating (0 to 100 scale, 0 is no effect, 100 is complete control) (pigweed; Postemergence, 500 g ai/ha) | Plant response rating, Pigweed (pigweed; [5]) | Plant response rating, Ryegrass, Italian (ryegrass, Italian; [3]) | Plant response rating, Ryegrass, Italian (ryegrass, Italian; [4]) | Ryegrass, Italian plant response rating (0 to 100 scale, 0 is no effect, 100 is complete control) (ryegrass, Italian; Postemergence, 500 g ai/ha) | Plant response rating, Ryegrass, Italian (ryegrass, Italian; [5]) | Plant response rating, Ragweed (ragweed; [3]) | Plant response rating, Ragweed (ragweed; [4]) | Ragweed plant response rating (0 to 100 scale, 0 is no effect, 100 is complete control) (ragweed; Postemergence, 500 g ai/ha) | Plant response rating, Ragweed (ragweed; [5]) | Plant response rating, Barnyardgrass (barnyardgrass [2]; [3]) | Plant response rating, Barnyardgrass (barnyardgrass [2]; [4]) | also measured |
| --- | --- | --- | --- | --- | --- | --- | --- | --- | --- | --- | --- | --- | --- | --- | --- | --- | --- | --- | --- | --- | --- |
| O=C1NCC(c2cccc(S(F)(F)(F)(F)F)c2)C1C(=O)Nc1ccccc1C(F)(F)F (stereo not drawn) [Compound 215] | 0 | 0 | 80 | 80 | 80 | 90 | 0 | 50 | 60 | 50 | 0 | 0 | 0 | 10 | 0 | 0 | 10 | 0 | 60 | 50 | Plant response rating, Rice (rice; 1000 g ai/ha): 0; Plant response rating, Barnyardgrass (barnyardgrass [1]; 1000 g ai/ha): 60; Plant response rating, Ducksalad (ducksalad; 1000 g ai/ha): 80; Plant response rating, Sedge, Umbrella (sedge, umbrella; 1000 g ai/ha): 0; Barnyardgrass plant response rating (0 to 100 scale, 0 is no effect, 100 is complete control) (barnyardgrass [2]; Postemergence, 500 g ai/ha): 60; Plant response rating, Barnyardgrass (barnyardgrass [2]; [5]): 80; Plant response rating, Kochia (kochia; [3]): 0; Plant response rating, Kochia (kochia; [4]): 0; Kochia plant response rating (0 to 100 scale, 0 is no effect, 100 is complete control) (kochia; Postemergence, 500 g ai/ha): 0; Plant response rating, Kochia (kochia; [5]): 0; Plant response rating, Blackgrass (blackgrass): 30; Blackgrass plant response rating (0 to 100 scale, 0 is no effect, 100 is complete control) (blackgrass): 50; Plant response rating, Galium (galium): 40; Galium plant response rating (0 to 100 scale, 0 is no effect, 100 is complete control) (galium): 60; Plant response rating, Wheat (wheat): 0; Wheat plant response rating (0 to 100 scale, 0 is no effect, 100 is complete control) (wheat): 0 |
| O=C1NCC(c2cccc3ccccc23)C1C(=O)Nc1ccccc1F (stereo not drawn) [Compound 216] | 0 | 0 | 40 | 0 | 10 | 50 | 0 | 0 | 0 | 0 | 0 | 0 | 0 | 0 | 0 | 0 | 0 | 0 | 20 | 0 | Plant response rating, Rice (rice; 500 g ai/ha): 0; Plant response rating, Barnyardgrass (barnyardgrass [1]; 500 g ai/ha): 0; Plant response rating, Ducksalad (ducksalad; 500 g ai/ha): 0; Plant response rating, Sedge, Umbrella (sedge, umbrella; 500 g ai/ha): 0; Barnyardgrass plant response rating (0 to 100 scale, 0 is no effect, 100 is complete control) (barnyardgrass [2]; Postemergence, 500 g ai/ha): 0; Plant response rating, Barnyardgrass (barnyardgrass [2]; [5]): 60; Plant response rating, Kochia (kochia; [3]): 0; Plant response rating, Kochia (kochia; [4]): 0; Kochia plant response rating (0 to 100 scale, 0 is no effect, 100 is complete control) (kochia; Postemergence, 500 g ai/ha): 0; Plant response rating, Kochia (kochia; [5]): 0; Plant response rating, Blackgrass (blackgrass): 0; Blackgrass plant response rating (0 to 100 scale, 0 is no effect, 100 is complete control) (blackgrass): 0; Plant response rating, Galium (galium): 0; Galium plant response rating (0 to 100 scale, 0 is no effect, 100 is complete control) (galium): 0; Plant response rating, Wheat (wheat): 0; Wheat plant response rating (0 to 100 scale, 0 is no effect, 100 is complete control) (wheat): 0 |
| Cc1ccccc1NC(=O)C1C(=O)NCC1c1ccc(OC(F)F)cc1 (stereo not drawn) [Compound 227] | 0 | 0 | 80 | 30 | 80 | 90 | 0 | 0 | 0 | 20 | 0 | 0 | 20 | 30 | 0 | 0 | 0 | 0 | 20 | 20 | Plant response rating, Rice (rice; 500 g ai/ha): 0; Plant response rating, Barnyardgrass (barnyardgrass [1]; 500 g ai/ha): 0; Plant response rating, Ducksalad (ducksalad; 500 g ai/ha): 90; Plant response rating, Sedge, Umbrella (sedge, umbrella; 500 g ai/ha): 0; Barnyardgrass plant response rating (0 to 100 scale, 0 is no effect, 100 is complete control) (barnyardgrass [2]; Postemergence, 500 g ai/ha): 80; Plant response rating, Barnyardgrass (barnyardgrass [2]; [5]): 50; Plant response rating, Kochia (kochia; [3]): 20; Plant response rating, Kochia (kochia; [4]): 0; Kochia plant response rating (0 to 100 scale, 0 is no effect, 100 is complete control) (kochia; Postemergence, 500 g ai/ha): 40; Plant response rating, Kochia (kochia; [5]): 20; Plant response rating, Blackgrass (blackgrass): 0; Blackgrass plant response rating (0 to 100 scale, 0 is no effect, 100 is complete control) (blackgrass): 40; Plant response rating, Galium (galium): 0; Galium plant response rating (0 to 100 scale, 0 is no effect, 100 is complete control) (galium): 0; Plant response rating, Wheat (wheat): 0; Wheat plant response rating (0 to 100 scale, 0 is no effect, 100 is complete control) (wheat): 0 |
| O=C1NCC(c2cccc(OC(F)F)c2)C1C(=O)Nc1ccccc1Br (stereo not drawn) [Compound 228] | 20 | 30 | 80 | 70 | 90 | 90 | 0 | 0 | 0 | 0 | 30 | 0 | 20 | 40 | 0 | 0 | 20 | 20 | 50 | 60 | Plant response rating, Rice (rice; 500 g ai/ha): 0; Plant response rating, Barnyardgrass (barnyardgrass [1]; 500 g ai/ha): 0; Plant response rating, Ducksalad (ducksalad; 500 g ai/ha): 90; Plant response rating, Sedge, Umbrella (sedge, umbrella; 500 g ai/ha): 0; Barnyardgrass plant response rating (0 to 100 scale, 0 is no effect, 100 is complete control) (barnyardgrass [2]; Postemergence, 500 g ai/ha): 80; Plant response rating, Barnyardgrass (barnyardgrass [2]; [5]): 80; Plant response rating, Kochia (kochia; [3]): 0; Plant response rating, Kochia (kochia; [4]): 20; Kochia plant response rating (0 to 100 scale, 0 is no effect, 100 is complete control) (kochia; Postemergence, 500 g ai/ha): 30; Plant response rating, Kochia (kochia; [5]): 20; Plant response rating, Blackgrass (blackgrass): 20; Blackgrass plant response rating (0 to 100 scale, 0 is no effect, 100 is complete control) (blackgrass): 40; Plant response rating, Galium (galium): 30; Galium plant response rating (0 to 100 scale, 0 is no effect, 100 is complete control) (galium): 40; Plant response rating, Wheat (wheat): 0; Wheat plant response rating (0 to 100 scale, 0 is no effect, 100 is complete control) (wheat): 20 |
